According to the NIST ThermoML archive (doi:10.1021/je100747y):
Numbers after ± are expanded uncertainties.

Tests used:
[1] = refractive index (Na D-line) (dimensionless); conditions: 298.15 K; 101.33 kPa; Liquid; Standard Abbe refractometry
[2] = 298.15 K; 101.33 kPa; Liquid
[3] = xn = mol fraction of the nth substance listed; conditions: 298.15 K, 101 kPa, Liquid, Vibrating tube method
[4] = refractive index (Na D-line) (dimensionless); xn = mol fraction of the nth substance listed; conditions: 298.15 K, 101 kPa, Liquid, Standard Abbe refractometry

CC(=O)CC(C)=O [2,4-pentanedione]
Conditions | mass density [kg/m3] | refractive index
[1] | – | 1.4509 ± 0.0007
[2] | 971 ± 0.4 | –

CC(=O)CC(C)=O [2,4-pentanedione] + ClC(Cl)Cl
Conditions | mass density, [3] [kg/m3] | refractive index, [4]
x2 = 0.0498 | 988.5 ± 0.3 | 1.4498 ± 0.0007
x2 = 0.0996 | 1009.2 ± 0.3 | 1.4497 ± 0.0007
x2 = 0.2007 | 1052.6 ± 0.3 | 1.4496 ± 0.0007
x2 = 0.3002 | 1097.2 ± 0.3 | 1.4494 ± 0.0007
x2 = 0.4002 | 1144.3 ± 0.4 | 1.4492 ± 0.0007
x2 = 0.4999 | 1193.6 ± 0.4 | 1.4487 ± 0.0007
x2 = 0.5997 | 1245.4 ± 0.5 | 1.4482 ± 0.0007
x2 = 0.7007 | 1300.4 ± 0.5 | 1.4475 ± 0.0007
x2 = 0.7997 | 1356.8 ± 0.6 | 1.4465 ± 0.0007
x2 = 0.899 | 1415.6 ± 0.6 | 1.445 ± 0.0007
x2 = 0.9494 | 1446.3 ± 0.6 | 1.4442 ± 0.0007

ClC(Cl)Cl [trichloromethane]
Conditions | mass density [kg/m3] | refractive index
[1] | – | 1.443 ± 0.0007
[2] | 1478 ± 1.8 | –
